Results taken from patent publication US7273723B2, “Antibiotic-based gene regulation system” (priority 2001, dated 2007).

Assays:
[1] = test system: PSV40 or PhCMV-driven SEAP expression constructs; assay: SEAP expression from constitutive PSV40 or PhCMV-driven constructs with erythromycin; assay type: cell-based; details: data not shown
[2] = test system: ET1/PETR3; assay: CFP expression in CHO cells infected with ET1-encoding lentivirus (pMF391) and transfected with pWW44; assay type: cell-based; details: 2 μg/ml erythromycin
[3] = test system: CHO cells; assay: CHO cell morphology and growth in the presence of EM; assay type: cell-based, Chinese hamster; details: EM 2 μg/ml
[4] = test system: ET1 / erythromycin-responsive promoter PETR3; assay: SEAP assay in CHO-Triplet42 transfected with PETR3-SEAP (pWW38); assay type: cell-based; details: CHO-Triplet42 + PWW38 (PETR3); antibiotic 2 μg/ml; 48 h
Experimental: (§1) Chinese hamster ovary cells (CHO-K1, ATCC: CCL 61), and HeLa cells (ATCC: CRL-7923) as well as stable cell lines derived thereof were cultured as described before (Fussenegger et al., 1998, Nat. Biotechnol. 16,468-472) in the presence of appropriate antibiotics: G418 400 μg/ml; zeocin 100 μg/ml. Optimized CaPO4 protocols were used for high efficiency transient transfection of all cell lines (Fussenegger et al., 1998. Nat. Biotechnol. 16: 468-472). Transiently transfected cells were routinely analyzed after 48 h for CFP or SEAP expression using fluorescence microscopy and p-nitrophenolphosphate-based light absorbance timecourse, respectively, as described before (Fussenegger et al., 1998, Nat. Biotechnol. 16, 468-472; Berger et al., 1988, Gene 66, 1-10 b). For construction of stable CHO-ET1 and CHO-Triplet42 cell lines, CHO-Ki and CHO-TWIN1108 (Disclosed in PCT application no. 00/65080) were cotransfected with pWW35 and pZeoSV2 (invitrogen). CHO-ET11-SEAP was constructed by cotransfection of pWW38 and pSV2neo (Clontech) into CHO-ET11. The mixed populations were cloned using FACS-mediated single-cell-sorting (FACStar^Plus; Beckton Dickinson). For assessment of dose-response characteristics of PETR3-regulated gene expression, CHO-ET11-SEAP were cultured at cell densities of 50,000/ml for 48 h at various EM concentrations.
(§2) Other antibiotics were eluted from antibiotic test discs (Mast Diagnostica GmbH, Reinfeld, Germany, or bioMérieux, Geneva Switzerland) in cell culture medium at 37° C. for 12 h to reach a final concentration of 30 μg/ml. All macrolide antibiotics were used at a 2 μg/ml concentration unless indicated otherwise.
(§3) The regulation performance of the EM-based regulation system was compared directly with the widely used TET- and PIP responsive expression concepts. To this end, we have constructed a stable CHO-K1-derived cell line expressing ET1, PIT and tTA (CHO-Triplet42). […] CHO-Triplet42 was transfected with either isogenic (i) PETR3-(pWW38), (ii) a PPIR-(pristinamycin-responsive promoter, pMF172, Fussenegger et al., 2000. supra.), or (iii) a PhCMV*-1-(tetracycline-responsive promoter, pMF111, Fussenegger et al., 2000. supra) driven SEAP expression vector to assess the individual regulation performance of the three antibiotic-responsive gene regulation systems in CHO cells (Table 5).
(§4) To analyze the relative regulatory characteristics, we evaluated induction factors (IF; ratio of maximal expression level to antibiotic-repressed expression level).
(§5) These repressive effects are still in a range which is tolerable for use in potential medical applications.

[5] = test system: ET1/PETR3 positive feedback expression unit; assay: Autoregulated pWW46 (PETR3-CFP-IRES-ET1-pA) CFP expression by fluorescence microscopy; assay type: cell-based; details: pWW46 in CHO-K1, HeLa, COS-7 or HEK 293-T cells; erythromycin 2 μg/ml
From the text: These positive feedback regulation vectors that were constructed contain both the cyan fluorescent protein CFP and ET1 in a dicistronic, PETR3-driven configuration.

[6] = test system: PIT / pristinamycin-responsive promoter PPIR; assay: SEAP assay in CHO-Triplet42 transfected with PPIR-SEAP (pMF172); assay type: cell-based; details: CHO-Triplet42 + pMF172 (PPIR); antibiotic 2 μg/ml; 48 h
Experimental: as §1, §2, §3, §4, §5

## CC[C@H]1OC(=O)[C@H](C)[C@@H](O[C@H]2C[C@@](C)(OC)[C@@H](O)[C@H](C)O2)[C@H](C)[C@@H](O[C@@H]2O[C@H](C)C[C@H](N(C)C)[C@H]2O)[C@](C)(O)C[C@@H](C)C(=O)[C@H](C)[C@@H](O)[C@]1(C)O [Erythromycin]
[1]
  Influence on expression levels of PSV40 or PhCMV-driven SEAP expression constructs: no influence
[2]
  CFP expression (fluorescence): complete repression
[3]
  Effects on CHO cell morphology and growth: No deleterious effects
[4]
  SEAP activity [U/L]: 3.8 ± 0.4 U/L
[5]
  CFP-expression (fluorescence microscopy): completely repressed
[6]
  SEAP activity [U/L]: 10.1 ± 1.5 U/L
